{"source": "patent US8349982B2", "about": "“Macromonomers and hydrogels” (William Marsh Rice University, priority 2006, dated 2013)", "origin": "cited, not measured here", "settings": "stated as typical", "data": [{"smiles": "C=CC(=O)OCC(CO)(COC(=O)C=C)COC(=O)CCCCCCCCCCCCCCCCC", "note": "[PEDAS, Pentaerythritol diacrylate monostearate]", "values": [{"measurement": "Solubility in water (in words)", "result": "insoluble in water"}]}]}
